Laboratory results from patent US20260167608A1, “CRYSTALLINE FORMS OF 4-(7-HYDROXY-2-ISOPROPYL-4-OXO-4H-QUINAZOLIN-3-YL)-BENZONITRILE AND FORMULATIONS THEREOF” (Bausch + Lomb Ireland Limited, priority 2019, published 2026).
In brackets after ≈: the same amount, converted by molar mass.

Experiments:
[1] = Exploratory formulation stability at room temperature and 40° C. (UPLC assay); assay type: physicochemical; conditions: part of compound I in solution in the supernatant; after 12 weeks at 40° C.
Experimental: Based on the limited solubility of compound I in various solvents and in water, a suspension formulation was explored for development. The following five formulations were prepared and tested for stability. Formulations were stored in crimp-sealed glass vials at room temperature and at 40° C. At 6, 8 and 12 weeks, samples were evaluated for compound I stability.
The formulations prepared in Table 13 were assayed using an exploratory UPLC method developed for the assay of compound I as shown in Table 14.
Results from the testing for compound I stability at room temperature and 40° C. are shown in FIG. 14A and FIG. 14B, respectively. […] In contrast, the part of compound I in solution in the supernatant degrades to about 20% of initial amount after 12 weeks at 40° C.

[2] = Pharmacokinetic study of exploratory formulations, single bilateral topical ocular dosing; assay type: in vivo, rabbit; conditions: male NZW rabbits
Experimental: A pharmacokinetics study was conducted to determine the ocular uptake of compound I following single bilateral topical ocular dosing of male NZW rabbits with the same four exploratory formulations provided in Table 13: FID 12152, FID 121511, FID 121512, FID 121513.

[3] = Intrinsic dissolution rate at 37° C.; assay type: physicochemical
[4] = Equilibration with solvent at 25° C., solid investigated by XRPD; assay type: physicochemical; design: key to XRPD change after equilibration: “−”: no change detected; “+”: change detected; “//”: not carried out because substance too soluble in the solvent
Experimental: Equilibration with Solvent at 25° C.
For equilibration at 25° C., about 50 mg of compound I was equilibrated with 1 ml solvent for 24 h in a water bath at 25° C.±0.1. The solutions were filtered and dried for 10 minutes in the air. The solid part was investigated by XRPD (X-ray powder diffraction). If differences were observed additional investigations were performed as appropriate (e.g. DSC, TG, IR, SEM).
The X-ray powder diffraction (XRPD) patterns described herein were recorded on a Bruker D8 Advance diffractometer using CuKα radiation. The XRPD pattern was recorded between 2° and 40° (2-theta).

[5] = Solubility of crystal form E at 25° C., analysis by HPLC; assay type: physicochemical; conditions: thermodynamic from solid
Experimental: Solubility of crystal form E was measured at 25° C.

[6] = Hygroscopicity (water uptake) of crystal form E; assay type: physicochemical
Experimental: The maximum water uptake is less than 0.1% at 25° C. up to 92% relative humidity.

[7] = Conversion of crystal form C in 1:1 mixtures with other crystal forms in solvent; assay type: physicochemical
[8] = equilibration at 25° C., solvent t-butylmethylether

CC(C)c1nc2cc(O)ccc2c(=O)n1-c1ccc(C#N)cc1 [compound I, 4-(7-hydroxy-2-isopropyl-4-oxo-4H-quinazolin-3-yl)-benzonitrile]
compound I remaining, of initial amount [1]: about 20% | exposure in the cornea, times the levels in plasma [2]: approximately 500 times | exposure in the cornea, times the levels in the aqueous humor and iris-ciliary body [2]: approximately 10 times

CC(C)c1nc2cc(O)ccc2c(=O)n1-c1ccc(C#N)cc1 [Crystal form E, 4-(7-Hydroxy-2-isopropyl-4-oxo-4H-quinazolin-3-yl)-benzonitrile]
Intrinsic dissolution rate (IDR) at 37° C. ([3]; HCl 0.1 N): 0.0194 mg min^−1 cm^−2 | Intrinsic dissolution rate (IDR) at 37° C. ([3]; pH 3): 0.0025 mg min^−1 cm^−2 | Comments ([4]; equilibration at 25° C., solvent Acetone): too soluble | XRPD change after equilibration ([4]; equilibration at 25° C., solvent Cyclohexane): − | XRPD change after equilibration ([4]; equilibration at 25° C., solvent Ethanol abs.): − | XRPD change after equilibration ([4]; equilibration at 25° C., solvent Ethyl acetate): − | XRPD change after equilibration ([4]; equilibration at 25° C., solvent Water): − | Comments [4, 8]: amorphous | XRPD change after equilibration [4, 8]: + | Comments ([4]; form E mixed with form B, equilibration at 25 degree C., solvent Ethanol abs.): converts into crystal form B | solubility ([5]; acetate buffer pH 4.5, 25 °C, aqueous buffer, Buffer pH 4.5 (acetate)): 10 µg/mL (≈ 32.8 µM) | solubility ([5]; buffer pH 1 (0.1 N HCl), 25 °C, pH 1, simulated gastric fluid): 345 µg/mL (≈ 1130 µM) | solubility ([5]; phosphate buffer pH 6.88, 25 °C, aqueous buffer, Buffer pH 6.88 (phosphate)): 11 µg/mL (≈ 36 µM) | hygroscopicity [6]: non-hygroscopic | maximum water uptake ([6]; at 25° C. up to 92% relative humidity): less than 0.1%

CC(C)c1nc2cc(O)ccc2c(=O)n1-c1ccc(C#N)cc1 [Crystal form C, 4-(7-Hydroxy-2-isopropyl-4-oxo-4H-quinazolin-3-yl)-benzonitrile]
conversion of crystal form ([7]; 1:1 mixture with crystal form A, in methanol): converted in methanol to Solvate SB (crystal form G) | conversion of crystal form ([7]; 1:1 mixture with crystal form B, in isopropanol): converted in isopropanol to crystal form B
